This is an account of results in patent US7989451B2, “Tricyclic 1,2,4-triazine oxides and compositions for therapeutic use in cancer treatments” (Auckland Uniservices Limited, priority 2005, dated 2011).

Counter-ions that a name gives are not always drawn. Like-named read-outs stand apart in the source and are kept apart here.

Series [1] concerns human cervical carcinoma SiHa. Nature of the series: Proliferation assay (IC50) under aerobic and hypoxic conditions, SiHa. Type of series: cell-based. The settings on record: for IC50: 4 h drug exposure, sulforhodamine B; for HCR: hypoxic cytotoxicity ratio = IC50 aerobic/IC50 hypoxic. As to the method: (§1) Compounds representative of the invention were evaluated under both aerobic and hypoxic conditions in a proliferation assay (IC50), using two cell lines: human colon carcinoma HT29, and human cervical carcinoma SiHa (Table 1).
(§2) Drug exposures were performed in 96-well plates (Nunc) either using a 37 DC humidified incubator (20% O2, 5% CO2) or in the incubator compartment (37° C.) of an anaerobic chamber (Shell Lab) where palladium catalyst scrubbed gas (90% N2, 5% H2, 5% CO2) ensures severe anoxia (<0.001% O2). For each experiment, compounds were simultaneously tested under both oxic and hypoxic conditions and included TPZ as an internal control. An 8-methyl-5-nitroquinoline derivative, SN 24349, known to require very low oxygen concentrations for bioactivation (Siim et al., Br. J. Cancer 1994, 70, 596-603) was used to confirm that strict hypoxia was present during the experiment. […] Cell cultures were grown in αMEM (Gibco) containing 5% heat inactivated FCS and maintained in exponential growth phase. For each individual experiment an appropriate number of cells were seeded (HT29=1100; SiHa=1500) into wells in αMEM+10% FCS+10 mM added glucose+100 μM 2′-deoxycytidine (2′dCyd), and allowed to attach for 2-3 h. High glucose (final concentration 17 mM) and the presence of 2′-dCyd minimize hypoxia-induced cell cycle arrest. Cultures were then exposed to drugs, using 3-fold serial dilutions in duplicate, for a further 4 h. Subsequently cells were washed free of compound using complete media (without glucose/2′-dCyd) and allowed to grow for 5 (oxic) or 6 (anoxic) days. Plates were stained with sulforhodamine B as described previously (Wilson et al., J. Med. Chem. 1989, 32, 31-38) and IC50 values determined.
(§3) HCR=Hypoxic cytotoxicity ratio is defined as the ratio of IC50 values under aerobic and hypoxic conditions (IC50 aerobic/IC50 hypoxic).

Series [2] deals with human colon carcinoma HT29. Nature of the series: Proliferation assay (IC50) under aerobic and hypoxic conditions, HT29. In kind it is cell-based. The settings on record: for IC50: 4 h drug exposure, sulforhodamine B; for HCR: hypoxic cytotoxicity ratio = IC50 aerobic/IC50 hypoxic. As for the experimental part:
as §1, §2, §3

[3] abbreviates: hypoxic (anaerobic chamber, <0.001% O2), then 6 days growth, read-out: IC50 (μM) hypoxic.
Where [4] appears, read: oxic (20% O2), then 5 days growth, read-out: IC50 (μM) oxic.
The mark [5] stands for this setting: Homo sapiens, hypoxic (anaerobic chamber, <0.001% O2), then 6 days growth, read-out: IC50 (μM) hypoxic.
[6] abbreviates: Homo sapiens, oxic (20% O2), then 5 days growth, read-out: IC50 (μM) oxic.
The mark [7] stands for this setting: Homo sapiens, HT-29, hypoxic (anaerobic chamber, <0.001% O2), then 6 days growth, read-out: IC50 (μM) hypoxic.
[8] abbreviates: Homo sapiens, HT-29, oxic (20% O2), then 5 days growth, read-out: IC50 (μM) oxic.

With `CC(C)(C)[Si](C)(C)OCC1Cc2cc3nc(N)n[n+]([O-])c3cc2C1` (stereo not drawn), the melting point is 169 to 171 °C.
With `CCc1nc2cc3c(cc2[n+]([O-])n1)CC(CO[Si](C)(C)C(C)(C)C)C3` (stereo not drawn), the melting point lay in the range of 63 to 65 °C.
`C=CCc1nc2cc3c(cc2[n+]([O-])n1)CC(CO[Si](C)(C)C(C)(C)C)C3` (stereo not drawn) had a melting point of 49 to 52 °C.
`[O-][n+]1nc(NCCN2CCOCC2)[n+]([O-])c2cc3c(cc21)CCC3` (as salt: hydrochloride) [Compound 45, N-[2-(4-Morpholinyl)ethyl]-7,8-dihydro-6H-indeno[5,6-e][1,2,4]triazin-3-amine 1,4-Dioxide]: the melting point fell in the range of 184 to 185 °C.
Consider `[O-][n+]1nc(NCCCN2CCOCC2)[n+]([O-])c2ccc3c(c21)CCC3` [Compound 15, N-[3-(1-Morpholinyl)propyl]-8,9-dihydro-7H-indeno[5,4-e][1,2,4]triazin-3-amine 1,4-Dioxide], for which the IC50 in series [1] (setting [3]) was found to be 13.9 µM; in series [1] (setting [4]), 460 µM; in series [2] (setting [3]), 37.6 µM; in series [2] (setting [4]), 902 µM. Also, the figures for the HCR in series [1] and in series [2] were 33 and 24, respectively.
As to `CCN(CC)CCNc1n[n+]([O-])c2cc3c(cc2[n+]1[O-])CCC3` [Compound 27, N^1-(1,4-Dioxido-7,8-dihydro-6H-indeno[5,6-e][1,2,4]triazin-3-yl)-N^2,N^2-diethyl-1,2-ethanediamine], the IC50 in series [1] (setting [5]) was determined as 1.1 µM; in series [1] (setting [6]), 143 µM; in series [2] (setting [7]), 4.2 µM; in series [2] (setting [8]) it was 254 µM. For the same molecule, the HCR was 133 in series [1] and 61 in series [2].
Consider `COC1CCCN(CCNc2n[n+]([O-])c3cc4c(cc3[n+]2[O-])CCC4)C1` (stereo not drawn) [Compound 41, N-[2-(3-Methoxy-1-piperidinyl)ethyl]-7,8-dihydro-6H-indeno[5,6-e][1,2,4]triazin-3-amine 1,4-Dioxide], for which the IC50 came to 46 ± 11 µM in series [1] (setting [5]), 1750 ± 148 µM in series [1] (setting [6]), 93 ± 11 µM in series [2] (setting [7]) and 1390 ± 349 µM in series [2] (setting [8]). The results for the HCR in series [1] and in series [2] were 46 ± 17 and 19 ± 0.3, respectively.
For `[O-][n+]1nc(NCCN2CCOCC2)[n+]([O-])c2cc3c(cc21)CCC3` [Compound 45, N-[2-(4-Morpholinyl)ethyl]-7,8-dihydro-6H-indeno[5,6-e][1,2,4]triazin-3-amine 1,4-Dioxide], the IC50 in series [1] (setting [5]) was 9.9 ± 1.4 µM; in series [1] (setting [6]) it was 245 ± 60 µM; in series [2] (setting [7]), 19 ± 2 µM; in series [2] (setting [8]), 310 ± 109 µM. For the same molecule, the values for the HCR in series [1] and in series [2] were 28 ± 11 and 17 ± 6, respectively.
As to `[O-][n+]1nc(NCCN2CCCOCC2)[n+]([O-])c2cc3c(cc21)CCC3` [Compound 49, N-[2-(1,4-Oxazepan-4-yl)ethyl]-7,8-dihydro-6H-indeno[5,6-e][1,2,4]triazin-3-amine 1,4-Dioxide], the IC50 was 2.8 ± 1.2 µM in series [1] (setting [5]), 217 ± 52 µM in series [1] (setting [6]), 7.1 ± 0.6 µM in series [2] (setting [7]) and 399 ± 148 µM in series [2] (setting [8]). The HCR in series [1] is reported as 86 ± 18; in series [2], 58 ± 26.
On to `N#CC1CCN(CCCNc2n[n+]([O-])c3cc4c(cc3[n+]2[O-])CCC4)C1` (stereo not drawn) [Compound 57, 1-{3-[(1,4-Dioxido-7,8-dihydro-6H-indeno[5,6-e][1,2,4]triazin-3-yl)amino]propyl}-3-pyrrolidinecarbonitrile], for which the half-inhibitory concentration (IC50) in series [1] (setting [5]) came to 10.4 ± 0.6 µM; in series [1] (setting [6]), 231 ± 64 µM; in series [2] (setting [7]), 22 ± 1 µM; in series [2] (setting [8]), 87 ± 3 µM. Besides, the results for the HCR in series [1] and in series [2] were 22 ± 6 and 4 ± 0.1, respectively.
On to `CN(C)CCCc1n[n+]([O-])c2cc3c(cc2[n+]1[O-])CCC3` [Compound 79, N-[3-(1,4-Dioxido-7,8-dihydro-6H-indeno[5,6-e][1,2,4]triazin-3-yl)propyl]-N,N-dimethylamine], for which the IC50 in series [1] (setting [5]) came to 0.32 ± 0.09 µM; in series [1] (setting [6]), 194 ± 120 µM; in series [2] (setting [7]), 0.54 ± 0.07 µM; in series [2] (setting [8]), 195 ± 99 µM. Moreover, the HCR in series [1] came out at 738 ± 523; in series [2] it was 386 ± 213.
As to `COC1CN(CCCc2n[n+]([O-])c3cc4c(cc3[n+]2[O-])CCC4)C1` [Compound 83, 3-[3-(3-Methoxy-1-azetidinyl)propyl]-7,8-dihydro-6H-indeno[5,6-e][1,2,4]triazine 1,4-Dioxide], the IC50 in series [1] (setting [5]) came to 0.58 ± 0.19 µM; in series [1] (setting [6]), 300 ± 162 µM; in series [2] (setting [7]), 1.3 ± 0.2 µM; in series [2] (setting [8]), 262 ± 83 µM. The results for the HCR in series [1] and in series [2] were 640 ± 411 and 249 ± 129, respectively.
Take `[O-][n+]1nc(CCCN2CCCC2)[n+]([O-])c2cc3c(cc21)CCC3` [Compound 85, 3-[3-(1-Pyrrolidinyl)propyl]-7,8-dihydro-6H-indeno[5,6-e][1,2,4]triazine 1,4-Dioxide]: the half-inhibitory concentration (IC50) is 0.35 ± 0.01 µM in series [1] (setting [5]), 133 ± 42 µM in series [1] (setting [6]), 0.63 ± 0.05 µM in series [2] (setting [7]) and 161 ± 48 µM in series [2] (setting [8]). Besides, the values for the HCR in series [1] and in series [2] were 385 ± 125 and 249 ± 55, respectively.
As to `[O-][n+]1nc(CCCN2CCCCC2)[n+]([O-])c2cc3c(cc21)CCC3` [Compound 87, 3-[3-(1-Piperidinyl)propyl]-7,8-dihydro-6H-indeno[5,6-e][1,2,4]triazine 1,4-Dioxide], the half-inhibitory concentration (IC50) in series [1] (setting [5]) stood at 0.26 ± 0.08 µM; in series [1] (setting [6]), 219 ± 96 µM; in series [2] (setting [7]), 0.37 ± 0.05 µM; in series [2] (setting [8]), 202 ± 72 µM. The values for the HCR in series [1] and in series [2] were 1000 ± 431 and 598 ± 233, respectively.
Consider `CCc1n[n+]([O-])c2cc3c(cc2[n+]1[O-])CC(CCN1CCOCC1)C3` (stereo not drawn) [Compound 164, 3-Ethyl-7-[2-(4-morpholinyl)ethyl]-7,8-dihydro-6H-indeno[5,6-e][1,2,4]triazine 1,4-Dioxide], for which the IC50 in series [1] (setting [5]) came to 1.3 µM; in series [1] (setting [6]), 95 ± 12 µM; in series [2] (setting [7]), 3.6 ± 1.1 µM; in series [2] (setting [8]) it was 121 ± 21 µM. The values for the HCR in series [1] and in series [2] were 84 and 36 ± 5, respectively.
On to `CN(C)CCNc1n[n+]([O-])c2c3c(ccc2[n+]1[O-])CCCC3` [Compound 173, N^1-(1,4-Dioxido-7,8,9,10-tetrahydronaphtho[2,1-e][1,2,4]triazin-3-yl)-N^2,N^2-dimethyl-1,2-ethanediamine], for which the half-maximal inhibitory concentration (IC50) in series [1] (setting [5]) is 1 µM; in series [1] (setting [6]), 62 µM; in series [2] (setting [7]), 3.4 µM; in series [2] (setting [8]), 60.5 µM. The HCR in series [1] amounted to 64; in series [2] it was 18.
With `[O-][n+]1nc(NCCCN2CCOCC2)[n+]([O-])c2cc3c(cc21)CCCC3` [Compound 180, N-[3-(4-Morpholinyl)propyl]-6,7,8,9-tetrahydronaphtho[2,3-e][1,2,4]triazin-3-amine 1,4-Dioxide], the IC50 was 2.6 ± 0.5 µM in series [1] (setting [5]), 127 ± 14 µM in series [1] (setting [6]), 6.3 ± 0.8 µM in series [2] (setting [7]) and 158 ± 19 µM in series [2] (setting [8]). Further, the HCR in series [1] is recorded as 54 ± 16; in series [2], 25 ± 3.
Regarding `CN(C)CCNc1n[n+]([O-])c2c3c(ccc2[n+]1[O-])OCCC3` [Compound 237, N^1-(1,4-Dioxido-9,10-dihydro-8H-chromeno[6,5-e][1,2,4]triazin-3-yl)-N^2,N^2-dimethyl-1,2-ethanediamine], the IC50 was found to be 0.67 µM in series [1] (setting [5]), 43.8 µM in series [1] (setting [6]), 4.1 µM in series [2] (setting [7]) and 59.1 µM in series [2] (setting [8]). The HCR in series [1] is listed as 66; in series [2], 14.
Consider `[O-][n+]1nc(NCCCN2CCOCC2)[n+]([O-])c2cc3c(cc21)OCCC3` [Compound 244, N-[3-(4-Morpholinyl)propyl]-7,8-dihydro-6H-chromeno[6,7-e][1,2,4]triazin-3-amine 1,4-Dioxide], for which the IC50 stood at 3.6 ± 0.5 µM in series [1] (setting [5]), 145 ± 29 µM in series [1] (setting [6]), 11 ± 3 µM in series [2] (setting [7]) and 188 ± 51 µM in series [2] (setting [8]). For the same molecule, the HCR in series [1] is listed as 41 ± 10; in series [2], 19 ± 5.
As to `CCN1Cc2cc3c(cc2C1)[n+]([O-])c(N)n[n+]3[O-]` [Compound 250, 7-Ethyl-7,8-dihydro-6H-[1,2,4]triazino[5,6-f]isoindol-3-amine 1,4-Dioxide], the half-inhibitory concentration (IC50) turned out to be 0.85 µM in series [1] (setting [5]), 36 ± 32 µM in series [1] (setting [6]), 1.5 µM in series [2] (setting [7]) and 6.2 µM in series [2] (setting [8]). Moreover, the HCR in series [1] is 80.

One may read the melting point as the temperature, or range, at which the solid turns liquid. By IC50 is commonly meant the concentration at which inhibition is half-maximal.
